Test results published in patent US7425631B2 (Amgen Inc., priority 2003, dated 2008).

Key:
[1] = target: T1, human bradykinin B1 receptor (Homo sapiens, UniProt P46663); assay: Radioligand binding assay for human B1 bradykinin receptor ([3H]des-arg10 kallidin); conditions: membranes of CHO cells expressing human B1 receptor; read-out: binding Ki's to the hB1 receptor
T1 construct: expressed in transfected cells; host or cells: CHO-d-AQN cells (membranes prepared in-house)
T1 sequence (P46663 1-353): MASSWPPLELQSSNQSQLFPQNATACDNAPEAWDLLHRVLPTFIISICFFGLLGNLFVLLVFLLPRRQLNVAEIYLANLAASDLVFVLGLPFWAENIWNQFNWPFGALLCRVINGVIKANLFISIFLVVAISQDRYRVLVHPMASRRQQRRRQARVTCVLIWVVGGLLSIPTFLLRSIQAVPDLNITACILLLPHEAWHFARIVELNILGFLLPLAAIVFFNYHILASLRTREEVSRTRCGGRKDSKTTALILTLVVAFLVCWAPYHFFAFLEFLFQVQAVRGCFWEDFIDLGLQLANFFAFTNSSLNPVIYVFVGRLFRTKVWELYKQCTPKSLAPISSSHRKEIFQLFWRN
Procedure: Preparation of membranes expressing human B1 and human B2 bradykinin receptor. Membranes were prepared from CHO-d^−AQN cells stably transfected with human bradykinin B1 receptor cDNA. For large-scale production of membranes, cells were grown in 100 L suspension culture to 1.0E8 cells/mL then harvested using the Viafuge at continuous centrifugation of 1000 g. For pilot studies, cells were grown in 2 L spinner culture and harvested by centrifugation (1900 g, 10 min, 4° C.). […] The resulting cell lysate was centrifuged (1900 g, 10 min, 4° C.), and the crude particulate fraction isolated by centrifugation (142,000 g, 1 h, 4° C.) of the low-speed supernatant. The resulting pellet was resuspended in ⅓ the original lysis buffer volume, homogenized, and recentrifuged as above. The membrane pellet was resuspended by homogenization in storage buffer (25 mM HEPES, pH 7.4, 3 mM MgCl2, 10% (w/v) sucrose and Complete Protease Inhibitor tablets (EDTA-free)). Single-use aliquots were made and flash-frozen in liquid N2 prior to storage at −80° C.
Radioligand Binding Assay for human B1 and human B2 bradykinin receptor. […] Membranes (50 μL) were added last. […] Nonspecific binding was defined with 2 μM des-Arg^10Leu^9 kallidin. […] The assay mixture was incubated with shaking for 1 hr at RT and then filtered through GF/C plates presoaked in 0.5% polyethyleneimine (Unifilter; Perkin Elmer Life Sciences) using a Filtermate 96-well harvester (Perkin Elmer Life Sciences). […] The plates were sealed and activity read on Topcount (Perkin Elmer Life Sciences) using a count time of 3 min per channel.
Data analysis. Data was analyzed in XLFit with the four-parameter logistic y=A+((B-A)/(1+((C/x)^D))) and fit with the Levenburg-Marquardt algorithm. Raw cpm were converted to percent of control values prior to analysis (POC=((compound cpm−nonspecfic cpm)/(no-compound cpm−nonspecific cpm)*100)). Ki values were determined from the IC50 using the Cheng-Prusoff equation and Kd values determined by direct saturation binding of the radioligands.

human B1 receptor = target: T2, human B1 receptor (Homo sapiens, UniProt P46663); assay: In vitro assay of human B1 receptor function using calcium flux (aequorin luminescence); assay type: cell-based; conditions: CHO D-/hB1/Aequorin cells, agonist 20 nM des-Arg10-Kallidin (EC80); read-out: binding IC50's to hB1 receptor function
T2 construct: expressed in transfected cells
T2 sequence (P46663 1-353): T1 sequence (P46663 1-353)
Procedure: Activation of the Gq linked B1 receptor results in an increase in intracellular calcium. […] Aequorin is a 21-kDa photoprotein that forms a bioluminescent complex when linked to the chromophore cofactor coelenterazine.
Following coelenterazine incubation, an automated flash-luminometer platform was used to dispense the B1 antagonist compounds (dissolved in DMSO and diluted with buffer to the desired concentration (final DMSO concentration <1% DMSO)) to the cell plate, a CCD camera situated underneath the cell plate took 12 images of the cell plate at 5 second intervals to determine if there was any agonist activity with the compounds. The hB1 agonist, des-Arg10-Kallidin, was added to the cell plate and another 12 images were recorded to determine the IC50 of the antagonist(s).

Ki [1] | IC50 (human B1 receptor) | Compound
< 100 nM | – | O=C(C[C@@H](NS(=O)(=O)c1cc(Cl)cc(Cl)c1)c1ccccc1)NC1CCOc2cc(CN3CCCCC3)ccc21 (stereo in doubt) [Example 1h, 3-(3,5-Dichloro-benzenesulfonylamino)-3-phenyl-N-(7-piperidin-1-ylmethyl-chroman-4-yl)-propionamide]
< 100 nM | – | O=C(C[C@@H](NS(=O)(=O)c1ccc2ccccc2c1)c1ccccc1)NC1CCOc2cc(CN3CCOCC3)ccc21 (stereo in doubt) [Example 3j, N-(7-Morpholin-4-ylmethyl-chroman-4-yl)-3-(naphthalen-2-yl-sulfonylamino)-3-phenyl-propionamide]
< 100 nM | – | CN1c2cc(CN3CCCCC3)ccc2C(NC(=O)C[C@@H](NS(=O)(=O)c2ccc3ccccc3c2)c2ccccc2)CS1(=O)=O (stereo in doubt) [Example 13, 3-(Naphthalen-2-yl-sulfonylamino)-N-(1-methyl-2,2-dioxo-7-piperidin-1-ylmethyl-1,2,3,4-tetrahydro-2λ^6-benzo[c][1,2]thiazin-4-yl)-3-phenyl-propionamide]
< 100 nM | – | CN1CCN(Cc2ccc3c(c2)OCCC3NC(=O)C[C@@H](NS(=O)(=O)c2ccc3ccccc3c2)c2ccccc2)CC1 (stereo partly drawn) [Example 1a, N-[7-(4-Methyl-piperazin-1-ylmethyl)-chroman-4-yl]-3-(naphthyl-2-ylsulfonylamino)-3-phenyl-propionamide]
< 100 nM | – | O=C(C[C@@H](NS(=O)(=O)c1ccc2ccccc2c1)c1ccccc1)NC1CCOc2cc(CN3CCCC3)ccc21 (stereo partly drawn) [Example 1d, 3-(Naphthalen-2-ylsulfonylamino)-3-phenyl-N-(7-pyrrolidin-1-ylmethyl-chroman-4-yl)-propionamide]
< 100 nM | < 10 nM | O=C(C[C@@H](NS(=O)(=O)c1ccc(Cl)c(Cl)c1)c1ccccc1)NC1CCOc2cc(CN3CCCCC3)ccc21 (stereo partly drawn) [Example 1f, 3-(3,4-Dichloro-benzenesulfonylamino)-3-phenyl-N-(7-piperidin-1-ylmethyl-chroman-4-yl)-propionamide]
< 100 nM | – | CC(C)NCc1ccc2c(c1)OCCC2NC(=O)C[C@@H](NS(=O)(=O)c1ccc2ccccc2c1)c1ccccc1 (stereo partly drawn) [Example 3, N-[7-(Isopropylamino-methyl)-chroman-4-yl]-3-(naphthalen-2-ylsulfonylamino)-3-phenyl-propionamide]
< 100 nM | – | CC(C)N(C)Cc1ccc2c(c1)OCCC2NC(=O)C[C@@H](NS(=O)(=O)c1ccc2ccccc2c1)c1ccccc1 (stereo partly drawn) [Example 3b]
< 100 nM | – | CCN(Cc1ccc2c(c1)OCCC2NC(=O)C[C@@H](NS(=O)(=O)c1ccc2ccccc2c1)c1ccccc1)C(C)(C)C (stereo partly drawn) [Example 3f, N-{7-[(tert-Butyl-ethyl-amino)-methyl]-chroman-4-yl}-3-(naphthalen-2-yl-sulfonylamino)-3-phenyl-propionamide]
< 100 nM | – | C[C@@H]1CC[C@@H](C)N1Cc1ccc2c(c1)OCCC2NC(=O)C[C@@H](NS(=O)(=O)c1ccc2ccccc2c1)c1ccccc1 (stereo partly drawn) [Example 3h, N-[7-(2R, 5R-Dimethyl-pyrrolidin-1-ylmethyl)-chroman-4-yl]-3-(naphthalen-2-yl-sulfonylamino)-3-phenyl-propionamide]
< 100 nM | – | CCN(CC)Cc1ccc2c(c1)OCCC2NC(=O)C[C@@H](NS(=O)(=O)c1ccc2ccccc2c1)c1ccccc1 (stereo partly drawn) [Example 3l, N-(7-Diethylaminomethyl-chroman-4-yl)-3-(naphthalen-2-yl-sulfonylamino)-3-phenyl-propionamide]
< 100 nM | – | O=C(C[C@@H](NS(=O)(=O)c1ccc2ccccc2c1)c1ccccc1)NC1CCc2c(CN3CCCCC3)cccc21 (stereo partly drawn) [Example 4a, 3-(Naphthalen-2-yl-sulfonylamino)-3-phenyl-N-(4-piperidin-1-ylmethyl-indan-1-yl)-propionamide]
< 100 nM | < 10 nM | O=C(C[C@@H](NS(=O)(=O)c1ccc2ccccc2c1)c1ccccc1)NC1CCc2cc(CN3CCCCC3)ccc21 (stereo partly drawn) [Example 5a, 3-(Naphthalen-2-yl-sulfonylamino)-3-phenyl-N-(5-piperidin-1-ylmethyl-indan-1-yl)-propionamide]
– | < 10 nM | O=C(CC(NS(=O)(=O)c1cccc(C(F)(F)F)c1)c1cc(Cl)cc(Cl)c1)N[C@@H]1CCCc2cc(CN3CCCCC3)ccc21 (stereo partly drawn) [fb, 3-(3,5-Dichloro-phenyl)-N-(6-piperidin-1-ylmethyl-1,2,3,4-tetrahydro-naphthalen-1-yl)-3-(3-trifluoromethyl-benzenesulfonylamino)-propionamide]
– | < 10 nM | O=C(CC(NS(=O)(=O)c1cccc(C(F)(F)F)c1)c1ccccc1F)N[C@@H]1CCCc2cc(CN3CCCCC3)ccc21 (stereo partly drawn) [fg, 3-(2-Fluoro-phenyl)-N-(6-piperidin-1-ylmethyl-1,2,3,4-tetrahydro-naphthalen-1-yl)-3-(3-trifluoromethyl-benzenesulfonylamino)-propionamide]
– | < 10 nM | O=C(CC(NS(=O)(=O)c1cccc(C(F)(F)F)c1)c1ccc(F)cc1)N[C@@H]1CCCc2cc(CN3CCCCC3)ccc21 (stereo partly drawn) [fh, 3-(4-Fluoro-phenyl)-N-(6-piperidin-1-ylmethyl-1,2,3,4-tetrahydro-naphthalen-1-yl)-3-(3-trifluoromethyl-benzenesulfonylamino)-propionamide]
– | < 10 nM | O=C(C[C@@H](NS(=O)(=O)c1cccc(C(F)(F)F)c1)c1ccc(F)cc1)N[C@@H]1CCCc2cc(CNC3CCCC3)ccc21 [n, (3R)-N-((1R)-6-((cyclopentylamino)methyl)-1,2,3,4-tetrahydro-1-naphthalenyl)-3-(4-fluorophenyl)-3-(((3-(trifluoromethyl)phenyl)sulfonyl)-amino)propanamide]
– | < 10 nM | O=C(C[C@@H](NS(=O)(=O)c1cccc(C(F)(F)F)c1)c1ccc(F)cc1)N[C@@H]1CCCc2cc(CN3CCCC3)ccc21 [o, (3R)-3-(4-fluorophenyl)-N-((1R)-6-(1-pyrrolidinylmethyl)-1,2,3,4-tetrahydro-1-naphthalenyl)-3-(((3-(trifluoromethyl)phenyl)sulfonyl)-amino)propanamide]
– | < 10 nM | O=C(C[C@@H](NS(=O)(=O)c1cccc(C(F)(F)F)c1)c1ccccc1)N[C@@H]1CCCc2cc(CN3CCC(F)(F)CC3)ccc21 [t, (3R)-N-((1R)-6-((4,4-difluoro-1-piperidinyl)methyl)-1,2,3,4-tetrahydro-1-naphthalenyl)-3-phenyl-3-(((3-(trifluoromethyl)phenyl)-sulfonyl)amino)propanamide]
